Drawing on patent publication US9656955B2, “Pyrrolidine derivatives, pharmaceutical compositions containing them, and their use in therapy” (AbbVie Deutschland GmbH & Co. KG, priority 2013, dated 2017), this text covers Ki for 31 molecules.

By Ki is commonly meant the dissociation constant of the complex between target and ligand, obtained from inhibition or displacement.

This assay has as its target human GlyT1c transporter (Homo sapiens (Human), UniProt P48067). The experiment in a line: Radioligand binding assays using recombinant CHO cell membranes expressing human GlyT1.
Setting [1] is: radioligand binding, human GlyT1c transporter-expressing CHO cell membranes.

Where two headings read alike, the source gives them in different places.

Sequence of human GlyT1c transporter (P48067 whole entry): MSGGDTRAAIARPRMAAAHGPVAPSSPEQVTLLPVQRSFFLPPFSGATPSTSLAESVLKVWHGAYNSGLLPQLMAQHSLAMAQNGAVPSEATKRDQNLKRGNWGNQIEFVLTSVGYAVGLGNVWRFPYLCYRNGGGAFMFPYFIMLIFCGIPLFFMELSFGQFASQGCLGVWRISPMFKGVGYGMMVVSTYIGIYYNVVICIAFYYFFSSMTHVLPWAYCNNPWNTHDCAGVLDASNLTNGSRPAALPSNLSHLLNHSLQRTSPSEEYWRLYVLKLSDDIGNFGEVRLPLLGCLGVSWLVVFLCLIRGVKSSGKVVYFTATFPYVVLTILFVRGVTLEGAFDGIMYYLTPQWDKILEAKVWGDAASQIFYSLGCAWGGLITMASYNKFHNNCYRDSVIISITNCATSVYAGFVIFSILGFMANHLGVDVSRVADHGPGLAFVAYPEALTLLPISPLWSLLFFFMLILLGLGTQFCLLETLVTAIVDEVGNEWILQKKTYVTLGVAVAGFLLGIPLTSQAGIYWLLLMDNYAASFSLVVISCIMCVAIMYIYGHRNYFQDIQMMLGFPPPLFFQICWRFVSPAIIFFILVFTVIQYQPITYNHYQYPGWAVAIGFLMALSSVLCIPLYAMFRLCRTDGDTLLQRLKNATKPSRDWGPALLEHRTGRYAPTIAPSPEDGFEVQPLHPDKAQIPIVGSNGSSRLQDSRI

Turning to `Cn1cnc(S(=O)(=O)N2C[C@@H]([C@@H]3CCCOC3)[C@H](Nc3cccc(OCC(F)(F)F)c3)C2)c1` (mixture of isomers) [Example 785, trans-1-[(1-methyl-1H-imidazol-4-yl)sulfonyl]-4-[(3S)-tetrahydro-2H-pyran-3-yl]-N-[3-(2,2,2-trifluoroethoxy)phenyl]pyrrolidin-3-amine], under setting [1], the Ki was ≤ 0.1 µM. Turning to `Cn1cnc(S(=O)(=O)N2C[C@@H](Nc3cccc(F)n3)[C@H](c3ccc(F)cc3)C2)c1` (relative stereo) [Example 238, 6-fluoro-N-{trans-4-(4-fluorophenyl)-1-[(1-methyl-1H-imidazol-4-yl)sulfonyl]pyrrolidin-3-yl}pyridin-2-amine], the Ki was ≤ 10 µM. Turning to `Cn1cnc(S(=O)(=O)N2C[C@@H](C(=O)c3ccc(F)cc3)[C@H](c3ccc(F)cc3)C2)c1` (relative stereo) [Example 303, (4-fluorophenyl){trans-4-(4-fluorophenyl)-1-[(1-methyl-1H-imidazol-4-yl)sulfonyl]pyrrolidin-3-yl}methasone], the Ki under setting [1] was ≤ 10 µM. Turning to `Cn1cnc(S(=O)(=O)N2C[C@@H](C(=O)c3ccc(Cl)c(F)c3)[C@H](c3ccc(F)cc3)C2)c1` (relative stereo) [Example 319, (4-Chloro-3-fluorophenyl){trans-4-(4-fluorophenyl)-1-[(1-methyl-1H-imidazol-4-yl)sulfonyl]pyrrolidin-3-yl}methanone], the Ki was ≤ 0.1 µM.

As to `Cn1cnc(S(=O)(=O)N2C[C@@H](c3ccccc3)[C@](C)(NCc3ccc(Cl)cc3)C2)c1` (relative stereo) [Example 354, Trans-N-(4-chlorobenzyl)-3-methyl-1-[(1-methyl-1H-imidazol-4-yl)sulfonyl]-4-phenylpyrrolidin-3-amine], under setting [1], the Ki was ≤ 1 µM. Turning to `Cn1cnc(S(=O)(=O)N2C[C@@H](c3ccccc3)[C@](C)(NCc3ccc(C(F)(F)F)cc3)C2)c1` (relative stereo) [Example 355, Trans-3-methyl-1-[(1-methyl-1H-imidazol-4-yl)sulfonyl]-4-phenyl-N-[4-(trifluoromethyl)benzyl]pyrrolidin-3-amine], the Ki under setting [1] was ≤ 1 µM. For `Cn1cnc(S(=O)(=O)N2C[C@@H](C(=O)c3cc(Cl)cc(Cl)c3)[C@H](c3ccc(F)cc3)C2)c1` (relative stereo) [Example 360, (3,5-Dichlorophenyl) {trans-4-(4-fluorophenyl)-1-[(1-methyl-1H-imidazol-4-yl)sulfonyl]pyrrolidin-3-yl}methanone], the Ki was ≤ 0.1 µM. Take `Cn1cnc(S(=O)(=O)N2C[C@@H](NC(=O)c3ccc(C(F)(F)F)cc3)[C@@](O)(c3ccccc3)C2)c1` (relative stereo) [Example 538, N-{Trans-4-hydroxy-1-[(1-methyl-1H-imidazol-4-yl)sulfonyl]-4-phenylpyrrolidin-3-yl}-4-(trifluoromethyl)benzamide]: under setting [1], the Ki was ≤ 10 µM.

For `Cn1cnc(S(=O)(=O)N2C[C@@H](Nc3cc(C(F)(F)F)ncn3)[C@H](C3CCCO3)C2)c1` (relative stereo) [Example 853, N-[Trans-1-[(1-methyl-1H-imidazol-4-yl)sulfonyl]-4-(tetrahydrofuran-2-yl)pyrrolidin-3-yl]-6-(trifluoromethyl)pyrimidin-4-amine], the Ki was ≤ 1 µM. For `Cn1cnc(S(=O)(=O)N2CC(c3ccccc3)N(Cc3cccc(Cl)c3)C2=O)c1` (stereo not shown) [Example 343, 3-(3-chlorobenzyl)-1-[(1-methyl-1H-imidazol-4-yl)sulfonyl]-4-phenylimidazolidin-2-one], the Ki under setting [1] was ≤ 10 µM. Consider `Cn1cnc(S(=O)(=O)N2C[C@H](Nc3ccc(F)c(Cl)c3)[C@@H](c3ccc(F)cc3)C2)c1` [Example 352, (3R,4S)—N-(3-chloro-4-fluorophenyl)-4-(4-fluorophenyl)-1-[(1-methyl-1H-imidazol-4-yl)sulfonyl]pyrrolidin-3-amine], for which the inhibitory constant (Ki) under setting [1] was ≤ 0.01 µM. Consider `Cn1cnc(S(=O)(=O)N2C[C@H](Nc3cccc(C#N)c3)[C@@H](c3ccc(F)cc3)C2)c1` [Example 380, 3-({(3R,4S)-4-(4-fluorophenyl)-1-[(1-methyl-1H-imidazol-4-yl)sulfonyl]pyrrolidin-3-yl}-amino)benzonitrile], for which, under setting [1], the Ki was ≤ 0.1 µM. On to `Cn1cnc(S(=O)(=O)N2CC(c3ccc(F)cc3)C(O)(Cc3ccccc3)C2)c1` (stereo not shown) [Example 382, 3-benzyl-4-(4-fluorophenyl)-1-[(1-methyl-1H-imidazol-4-yl)sulfonyl]pyrrolidin-3-ol], for which the Ki under setting [1] is ≤ 0.1 µM. Consider `Cn1cnc(S(=O)(=O)N2CC(Nc3nnccc3C(F)(F)F)C(c3ccc(F)cc3)C2)c1` (stereo not shown) [Example 384, N-{4-(4-fluorophenyl)-1-[(1-methyl-1H-imidazol-4-yl)sulfonyl]pyrrolidin-3-yl}-4-(trifluoromethyl)pyridazin-3-amine], for which the Ki under setting [1] was ≤ 10 µM. Still for that read-out and setting: the value for `Cn1cnc(S(=O)(=O)N2C[C@@H](Nc3cccc(C#N)c3)[C@H](c3ccc(F)cc3)C2)c1` [Example 389, 3-({(3S,4R)-4-(4-fluorophenyl)-1-[(1-methyl-1H-imidazol-4-yl)sulfonyl]pyrrolidin-3-yl}amino)benzonitrile] was ≤ 10 µM; that for `Cn1cnc(S(=O)(=O)N2C[C@H](NCc3ccc(C(F)(F)F)cc3)[C@@H](c3ccccc3)C2)c1` [Example 398, (3R,4S)-1-[(1-methyl-1H-imidazol-4-yl)sulfonyl]-4-phenyl-N-[4-(trifluoromethyl)benzyl]pyrrolidin-3-amine] was ≤ 0.01 µM.

Take `Cn1cnc(S(=O)(=O)N2C[C@H](Nc3cnc(C4CCC4)cn3)[C@@H](c3ccccc3)C2)c1` [Example 411, 5-cyclobutyl-N-{(3R,4S)-1-[(1-methyl-1H-imidazol-4-yl)sulfonyl]-4-phenylpyrrolidin-3-yl}pyrazin-2-amine]: the Ki under setting [1] was ≤ 10 µM. The same measure, in the same setting: with `Cn1cnc(S(=O)(=O)N2C[C@H](NC(=O)c3cnc(C(F)(F)F)cn3)[C@@H](c3ccccc3)C2)c1` [Example 414, N-{(3R,4S)-1-[(1-methyl-1H-imidazol-4-yl)sulfonyl]-4-phenylpyrrolidin-3-yl}-5-(trifluoromethyl)pyrazine-2-carboxamide] the figure was ≤ 10 µM. Regarding `Cn1cnc(S(=O)(=O)N2C[C@H](Nc3ccc(F)c(Cl)c3)[C@@H](c3ccccc3)C2)c1` [Example 417, (3R,4S)—N-(3-chloro-4-fluorophenyl)-1-[(1-methyl-1H-imidazol-4-yl)sulfonyl]-4-phenylpyrrolidin-3-amine], under setting [1], the Ki is ≤ 0.01 µM.

For `Cn1cnc(S(=O)(=O)N2C[C@H](NC(=O)c3ccc(Cl)nn3)[C@@H](c3ccccc3)C2)c1` [Example 419, 6-chloro-N-{(3R,4S)-1-[(1-methyl-1H-imidazol-4-yl)sulfonyl]-4-phenylpyrrolidin-3-yl}pyridazine-3-carboxamide], under setting [1], the Ki is ≥ 10 µM. With `Cn1cnc(S(=O)(=O)N2C[C@H](Nc3ccnc(N4CCOCC4)n3)[C@@H](c3ccccc3)C2)c1` [Example 420, N-{(3R,4S)-1-[(1-methyl-1H-imidazol-4-yl)sulfonyl]-4-phenylpyrrolidin-3-yl}-2-(morpholin-4-yl)pyrimidin-4-amine], the Ki under setting [1] is ≤ 10 µM. For `CCCc1ccc(CN[C@H]2CN(S(=O)(=O)c3cn(C)cn3)C[C@@H]2c2ccccc2)o1` [Example 428, (3R,4S)-1-[(1-methyl-1H-imidazol-4-yl)sulfonyl]-4-phenyl-N-[(5-propylfuran-2-yl)methyl]pyrrolidin-3-amine], under setting [1], the Ki was ≤ 0.1 µM. `CC(C)N1CCC(CN[C@H]2CN(S(=O)(=O)c3cn(C)cn3)C[C@@H]2c2ccccc2)CC1` [Example 459, (3R,4S)-1-[(1-methyl-1H-imidazol-4-yl)sulfonyl]-4-phenyl-N-{[1-(propan-2-yl)piperidin-4-yl]methyl}pyrrolidin-3-amine]: the Ki under setting [1] is ≤ 10 µM.

Turning to `Cn1cnc(S(=O)(=O)N2C[C@H](NCc3nc(-c4ccc(F)cc4)cs3)[C@@H](c3ccccc3)C2)c1` [Example 460, (3R,4S)—N-{[4-(4-fluorophenyl)-1,3-thiazol-2-yl]methyl}-1-[(1-methyl-1H-imidazol-4-yl)sulfonyl]-4-phenylpyrrolidin-3-amine], under setting [1], the Ki is ≤ 10 µM. As to `Cc1ccc(CN[C@H]2CN(S(=O)(=O)c3cn(C)cn3)C[C@@H]2c2ccccc2)s1` [Example 462, (3R,4S)-1-[(1-methyl-1H-imidazol-4-yl)sulfonyl]-N-[(5-methylthiophen-2-yl)methyl]-4-phenylpyrrolidin-3-amine], the Ki under setting [1] is ≤ 0.1 µM. Turning to `Cn1cc(S(=O)(=O)N2CC(Nc3ccc(F)c(F)c3)C(c3ccccc3)C2)c(C(F)(F)F)n1` (stereo not shown) [Example 476, N-(3,4-difluorophenyl)-1-{[1-methyl-3-(trifluoromethyl)-1H-pyrazol-4-yl]sulfonyl}-4-phenylpyrrolidin-3-amine], the Ki under setting [1] was ≤ 10 µM. Turning to `CC1(C)C(=O)Nc2ccc(S(=O)(=O)N3CC(Nc4ccc(F)c(F)c4)C(c4ccccc4)C3)cc21` (stereo not shown) [Example 478, 5-({3-[(3,4-difluorophenyl)amino]-4-phenylpyrrolidin-1-yl}sulfonyl)-3,3-dimethyl-1,3-dihydro-2H-indol-2-one], under setting [1], the Ki was ≤ 10 µM. Turning to `Cc1nn(C2CCCC2)cc1S(=O)(=O)N1CC(Nc2ccc(F)c(F)c2)C(c2ccccc2)C1` (stereo not shown) [Example 479, 1-[(1-cyclopentyl-3-methyl-1H-pyrazol-4-yl)sulfonyl]-N-(3,4-difluorophenyl)-4-phenylpyrrolidin-3-amine], the Ki under setting [1] is > 10 µM.

Regarding `Cc1cc(S(=O)(=O)N2CC(Nc3ccc(F)c(F)c3)C(c3ccccc3)C2)n(C)n1` (stereo not shown) [Example 482, N-(3,4-difluorophenyl)-1-[(1,3-dimethyl-1H-pyrazol-5-yl)sulfonyl]-4-phenylpyrrolidin-3-amine], under setting [1], the Ki was ≤ 10 µM. `Cc1cc(S(=O)(=O)N2CC(Nc3ccc(F)c(F)c3)C(c3ccccc3)C2)c(C)o1` (stereo not shown) [Example 488, N-(3,4-difluorophenyl)-1-[(2,5-dimethylfuran-3-yl)sulfonyl]-4-phenylpyrrolidin-3-amine]: the Ki under setting [1] is ≤ 10 µM.

Turning to `COC(=O)c1sccc1S(=O)(=O)N1CC(Nc2ccc(F)c(F)c2)C(c2ccccc2)C1` (stereo not shown) [Example 489, methyl 3-({3-[(3,4-difluorophenyl)amino]-4-phenylpyrrolidin-1-yl}sulfonyl)thiophene-2-carboxylate], the Ki under setting [1] is ≤ 10 µM.
